Measured values as given in the CATMoS acute toxicity set (Mansouri et al. 2021).

Assay: GHS categories as the set defines them, by LD50: 1 up to 5, 2 up to 50, 3 up to 300, 4 up to 2000, 5 above 2000 mg/kg
Conditions: rat; in vivo; po

SMILES | GHS category
Cc1nn(C)c(O)c1C(=O)c1ccc(C(F)(F)F)cc1S(C)(=O)=O | 5
C=CC(=C)CCC=C(C)CCC=C(C)C=O | 5
CCOC(=O)C(=O)Nc1cc(OC)nc(-c2ccccc2)n1 | 4
CCC=CCCOC(=O)C(C)C | 5
CCCC/C=C\CCCCCCCCCC=O | 5
CC(Oc1cccc(Cl)c1)C(=O)O (centres undefined) | 4
COc1ccc(C(=O)NCc2ccc(OCCN(C)C)cc2)cc1OC | 5
CCC1(CC)COC(Cn2cncn2)(c2cc3ccccc3o2)OC1 | 4
C[C@@H]1CO[C@@](Cn2cncn2)(c2cc3cc(Cl)ccc3o2)O1 | 4
COC(=O)c1ccc(C(=O)OC)c(N)c1 | 5
O=C1NCCCN1 | 5
CC(C)(C)NC(=O)[C@@H]1CN(Cc2cccnc2)CCN1C[C@@H](O)C[C@@H](Cc1ccccc1)C(=O)N[C@H]1c2ccccc2C[C@H]1O | 5
CC(C)OC(=O)[C@@H](C)N(C(=O)c1ccccc1)c1ccc(F)c(Cl)c1 | 5
CC(O)CCCCO (centres undefined) | 5
CCOC(=O)C(C)OC(=O)c1cc(Oc2ccc(C(F)(F)F)cc2Cl)ccc1[N+](=O)[O-] (centres undefined) | 5
O=C[C@H](O[C@@H](C=O)[C@@H](O)[C@H](O)[C@H](O)CO)[C@@H](O)[C@H](O)[C@H](O)CO | 5
CC(C)=CCC[C@@](C)(O)[C@H]1CC=C(C)CC1 | 5
CCCc1c(Cc2ccc(-c3ccccc3C(N)=O)cc2)c(=O)nc2[nH]ncn12 | 4
C=C(C)C(=O)OCCOCCOCCCC | 5
COc1ccc(C2(c3ccc(OC)c(Cl)c3)NC(=O)NC2=O)cc1 (centres undefined) | 5
CCOC(/C=C(\C)CCC=C(C)C)OCC | 5
COC(=O)C(O)(c1cccs1)c1cccs1 | 5
COc1ccc(NC(=O)c2cc3ccccc3cc2O)cc1 | 5
CC1OC(Cn2cncn2)(c2cc3ccccc3o2)OC1C (centres undefined) | 4
C[C@@H]1CCO[C@@](Cn2cncn2)(c2cc3ccccc3o2)O1 | 4
CCOC(=O)C1CN(C)C2CCCC(C)N2C1=O (centres undefined) | 5

SMILES | GHS category
C=C(C)C(=O)OCC(CC)CCCC (centres undefined) | 5
Cc1ccc(C(=O)O)cc1[N+](=O)[O-] | 5
CC(O)COC(=O)c1c(Br)c(Br)c(Br)c(Br)c1C(=O)OCCOCCO (centres undefined) | 5
O=P(O)(O)CN(CP(=O)(O)O)CP(=O)(O)O | 5
OCCn1c(C=Cc2nc3ccccc3[nH]2)nc2ccccc21 | 5
Clc1cccc(Cl)c1Nc1ccccc1 | 5
COC(OC)C(C)Cc1ccc(C(C)C)cc1 (centres undefined) | 5
Oc1cc(O)c2c(c1)O[C@H](c1ccc(O)c(O)c1)[C@@H](O)C2 | 5
CC(C)(C)CNc1nnc(-c2ccccc2)c2ccccc12 | 5
O=C(Nc1ccccc1)N(Cc1ccc(Cl)cc1)C1CCCC1 | 5
CC1CCC2C(C)(C)C3CC12CC1OC13C (centres undefined) | 5
COc1ccc(OC(=O)c2ccccc2OC(N)=O)cc1 | 5
COC(=O)c1cc(Cl)ccc1OC(N)=O | 5
CCCc1c(Cc2ccc(-c3ccccc3-c3nn[nH]n3)cc2)c(=O)nc2nc(C)[nH]n12 | 4
CC(O)C(O)C(=O)C(O)C(O)Oc1cccc2c1C(=O)c1c(O)cc(C(=O)O)cc1C2C1c2cc(C(=O)O)cc(O)c2C(=O)c2c(OC(O)C(O)C(=O)C(O)C(C)O)cccc21 (centres undefined) | 5
CCCC1CCCC(=O)O1 (centres undefined) | 5
Cc1cccc(N(C)C(=S)Oc2ccc3c(c2)C2CCC3C2)c1 (centres undefined) | 4
COc1ccccc1N1CCN(CC(O)COc2cccc3ccccc23)CC1 (centres undefined) | 5
O=C1COc2cc(C(=O)c3ccccc3)ccc2N1 | 5
CC(C)CC(C)c1ccccc1N (centres undefined) | 5
CC1=CC2[C@@H](C(=O)O1)C2(C)C (some centres undefined) | 5
CCCCC(CC)C1NC(=O)N(SC(Cl)(Cl)Cl)C1=O (centres undefined) | 4
OCCOc1ccc(OCCO)cc1 | 5
CCNC(=O)[C@@H]1CCCN1C(=O)[C@H](CCCN=C(N)N)NC(=O)[C@H](CC(C)C)NC(=O)[C@@H](COC(C)(C)C)NC(=O)[C@H](Cc1ccc(O)cc1)NC(=O)[C@H](CO)NC(=O)[C@H](Cc1c[nH]c2ccccc12)NC(=O)[C@H](Cc1cnc[nH]1)NC(=O)[C@@H]1CCC(=O)N1 | 4
CCCNC(=O)c1cnc2cc(C)ccn2c1=O | 3
CN(CCO)S(=O)(=O)C(F)(F)C(F)(F)C(F)(F)C(F)(F)F | 5

SMILES | GHS category
CC1COC(Cn2cncn2)(c2cc3ccccc3o2)O1 (centres undefined) | 4
OC1C(Cl)(Cl)C(=C(Cl)Cl)C(O)(C(Cl)Cl)C1(Cl)Cl (centres undefined) | 4
C=C(C)C(=O)NCCC[N+](C)(C)C | 5
CCOC(=O)COc1cc(-c2nn(C)c(OC(F)F)c2Cl)c(F)cc1Cl | 5
CC12CCC3c4ccc(OC(=O)c5ccccc5)cc4CCC3C1CCC2OC(=O)CO (centres undefined) | 5
FC(F)(F)C(F)(F)C(Cl)Cl | 5
O=C(NC(CCc1ccc2c(c1)OCO2)CCc1ccc2c(c1)OCO2)c1cc2ccccc2o1 | 5
CC(C)(C)c1cc(CCC(=O)NCCCCCCNC(=O)CCc2cc(C(C)(C)C)c(O)c(C(C)(C)C)c2)cc(C(C)(C)C)c1O | 5
O=C(O)CNC(=O)c1ccco1 | 5
O=c1[nH]cnc2c1ncn2[C@H]1CC[C@@H](CO)O1 | 5
Cc1c(OCC(F)(F)F)ccnc1CS(=O)c1nc2ccccc2[nH]1 (centres undefined) | 5
CCCCCC1C(=O)CCC1CC(C)=O (centres undefined) | 5
O=[N+]([O-])c1ccc2c(c1)COP(=S)(N1CCCCC1)O2 (centres undefined) | 3
CC/C(=C(/c1ccc(OCCN(C)C)cc1)c1cccc(O)c1)c1ccccc1 | 5
Cc1cccc2ncc(C(=O)N3CCCC3)c(=O)n12 | 3
CCCCCCCCCCCCCCOC(=O)CCCCCCCCCCCCC | 5
N#Cc1ccccc1-c1ccc(CBr)cc1 | 5
CCOC(=O)C(=O)Nc1nc(-c2ccc(OC)cc2)cs1 | 5
CC(=O)C(N=Nc1cc(C(=O)Nc2cc(Cl)ccc2C)ccc1Cl)C(=O)Nc1cc(C)c(NC(=O)C(N=Nc2cc(C(=O)Nc3cc(Cl)ccc3C)ccc2Cl)C(C)=O)cc1C (centres undefined) | 5
CC=CC=CCOC(=O)CCC | 5
COc1ccc2c(c1)CC[C@@H]1[C@@H]2CC[C@]2(C)C(=O)CC[C@@H]12 | 5
Cc1ncc(CSSSCc2cnc(C)c(O)c2CO)c(CO)c1O | 5
OC[C@H]1CO[C@@](Cn2cncn2)(c2cc3ccccc3o2)O1 | 4
C[C@@H]1C[C@@H](O)CC(C)(C)C1=O | 5
CCCCCCCCCCCCCCCNCCCCCCCCCCCCCCC | 5
O=[N+]([O-])c1ccc2c(c1)COP(=S)(N1CCOCC1)O2 (centres undefined) | 3

SMILES | GHS category
CNS(=O)(=O)Cc1ccc2[nH]cc(CCN(C)C)c2c1 | 5
CCCCCCCC/C=C\CCCCCCCC(=O)OCC(C)(C)COC(=O)CCCCCCC/C=C\CCCCCCCC | 5
CCCCCCCCCCBr | 5
O=C1c2ccccc2C(=O)c2ccccc21 | 5
Brc1cc(Br)c(Oc2nc(Oc3c(Br)cc(Br)cc3Br)nc(Oc3c(Br)cc(Br)cc3Br)n2)c(Br)c1 | 5
CC(C)CC(=O)OC1CC(C)CCC1C(C)C (centres undefined) | 5
CC[N+](CC)(CC)C(C)OS(=O)(=O)C(F)(F)C(F)(F)C(F)(F)C(F)(F)F (centres undefined) | 5
CC(SC(=O)c1cccs1)C(=O)NCC(=O)O (centres undefined) | 5
O=C1NC(=O)c2ccc3c4cccc5cccc(c6ccc1c2c63)c54 | 5
O=C(O)CCCCCCCCCCC(=O)O | 5
CC[C@H](C)[C@H](NC(=O)[C@H](CCC(=O)O)NC(=O)[C@H](CO)NC(=O)[C@@H](NC(=O)[C@@H](N)CO)C(C)C)C(=O)N[C@@H](CCC(N)=O)C(=O)N[C@@H](CC(C)C)C(=O)N[C@@H](CCSC)C(=O)N[C@@H](Cc1cnc[nH]1)C(=O)N[C@@H](CC(N)=O)C(=O)N[C@@H](CC(C)C)C(=O)NCC(=O)N[C@@H](CCCCN)C(=O)N[C@@H](Cc1cnc[nH]1)C(=O)N[C@@H](CC(C)C)C(=O)N[C@@H](CC(N)=O)C(=O)N[C@@H](CO)C(=O)N[C@@H](CCSC)C(=O)N[C@@H](CCC(=O)O)C(=O)N[C@@H](CCCNC(=N)N)C(=O)N[C@H](C(=O)N[C@@H](CCC(=O)O)C(=O)N[C@@H](Cc1c[nH]c2ccccc12)C(=O)N[C@@H](CC(C)C)C(=O)N[C@@H](CCCNC(=N)N)C(=O)N[C@@H](CCCCN)C(=O)N[C@@H](CCCCN)C(=O)N[C@@H](CC(C)C)C(=O)N[C@@H](CCC(N)=O)C(=O)N[C@@H](CC(=O)O)C(=O)N[C@H](C(=O)N[C@@H](Cc1cnc[nH]1)C(=O)N[C@@H](CC(N)=O)C(=O)N[C@@H](Cc1ccccc1)C(=O)O)C(C)C)C(C)C | 2
CC(C)(C)c1cc(Cc2cc(C(C)(C)C)c(O)c(C(C)(C)C)c2)cc(C(C)(C)C)c1O | 5
COP(=S)(OC)N(C)C(=O)Oc1cccc2c1OC(C)(C)C2 | 3
CCCCCCCCCCCCCCCCOP(=O)(O)O | 5
O=C(O)c1ccccc1C(=O)O | 5
O=C1CCCCCCCCCCCCCCO1 | 5
COc1ccc2c(c1)CCN(c1cccc(F)c1)C2c1cccc(F)c1 (centres undefined) | 4
CC(C)OC(=O)Nc1nc(N2CC=CCC2)cc2nc(=O)on12 | 5
CCCC(=O)O[C@H]1[C@H](C)O[C@@H](O[C@H]2[C@H](N(C)C)[C@@H](O)[C@H](O[C@H]3[C@@H](CC=O)C[C@@H](C)[C@@H](O)/C=C/C=C/C[C@@H](C)OC(=O)C[C@@H](O)[C@@H]3OC)O[C@@H]2C)C[C@@]1(C)OC(=O)CC | 5
O=C1NC(=O)C(c2ccc(O)cc2)(c2ccc(O)cc2)N1 | 5
CNc1ccc(C(=O)O)cc1[N+](=O)[O-] | 5
NP(N)(=O)Nc1ccccc1[N+](=O)[O-] | 5
CC(=O)C[N+]1(CC(N)=O)C(=O)Sc2ccc(Cl)cc21 (centres undefined) | 5
CCCCCCCCC=CCCCCCCCCCCCC(=O)NCCCN(C)C | 5
O=C(NCC(O)CCl)c1ccc([N+](=O)[O-])cc1 (centres undefined) | 3
CCCO[Si](OCCC)(OCCC)OCCC | 5
